Results taken from patent US20250368626A1, “SOLID FORMS OF 2-(3,5-DICHLORO-4-((5-ISOPROPYL-6-OXO-1,6-DIHYDROPYRIDAZIN-3-YL)OXY)PHENYL)-3,5-DIOXO-2,3,4,5-TETRAHYDRO-1,2,4-TRIAZINE-6-CARBONITRILE” (Madrigal Pharmaceuticals, Inc., priority 2018, published 2025).
Values after ≈ are worked out from the molar mass of the structure shown. Values belong to the molecule of their own block, whether it stands above or below them.

Columns and labels:
[1] = Solubility of salts of Compound A in FaSSGF, FaSSIF and water at 37° C.; conditions: for Solubility: 37° C.
[2] = Kinetic and thermodynamic solubility of Compound A and the glutaric acid co-crystal in FaSSGF, FaSSIF and water at 37° C. (HPLC); assay type: physicochemical; conditions: for solubility at 1 h / solubility at 24 h / Solubility: 37° C.; for pH: pH of the slurry; for XRPD after slurry: solid form after slurry
Method: The kinetic and thermodynamic solubility of the glutaric acid co-crystal was assessed in simulated fasted state gastric and intestinal fluids (FaSSGF and FaSSIF) and also in water. The pH of the system was also measured. The solubility assessment was also performed on Compound A for comparison. […] Samples were collected after 24 hours for equilibrium solubility measurement.

[3] = Dynamic vapor sorption (DVS) of the glutaric acid co-crystal; assay type: physicochemical
Excerpt: FIG. 83 is a dynamic vapor sorption (DVS) isotherm of the glutaric acid co-crystal of Compound A showing a total mass gain of 1.12% by weight between 2% and 95% relative humidity environments.
No difference in the XRPD pattern was seen after the DVS analysis, the XRPD patterns before and after DVS analysis are shown in FIG. 84.

[4] = Stability of the co-crystal at 75% RH at 40° C. for 1 week; assay type: physicochemical
[5] = Physical form stability of scaled-up salts at 75% relative humidity for 1 week; assay type: physicochemical
[6] = Water, value of the 100X dil sample
[7] = solid after solubility test in FaSSGF, by XRPD

- Solubility ([1]; FaSSGF): 0.0012 mg/mL
- Solubility ([1]; FaSSIF): 2.72 mg/mL
- Solubility ([1]; Water): > 21.3 mg/mL
- Solubility [1, 6]: 0.21 mg/mL
- Resulting form ([1]; after solubility test in Water): Clear solution
- Resulting form [1, 7]: Dihydrate
SMILES: CC(C)c1cc(Oc2c(Cl)cc(-n3nc(C#N)c(=O)[n-]c3=O)cc2Cl)n[nH]c1=O.[K+] [K]

- solubility at 1 h ([2]; fassgf or other biorelevant, thermodynamic from solid, FaSSGF, Kinetic-1 hour): 1.1 µg/mL (≈ 2.53 µM)
- solubility at 24 h ([2]; pH 1.67, fassgf or other biorelevant, thermodynamic from solid, FaSSGF, Equilibrium-24 hours): 1.1 µg/mL (≈ 2.53 µM)
- solubility at 24 h ([2]; pH 6.44, thermodynamic from solid, FaSSIF, Equilibrium-24 hours): 552 µg/mL (≈ 1270 µM)
- solubility at 24 h ([2]; pH 6.57, thermodynamic from solid, Water, Equilibrium-24 hours): 193 µg/mL (≈ 443 µM)
- pH ([2]; FaSSGF, Equilibrium-24 hours): 1.67
- pH ([2]; FaSSIF, Equilibrium-24 hours): 6.44
- pH ([2]; Water, Equilibrium-24 hours): 6.57
- XRPD after slurry ([2]; FaSSGF, Equilibrium-24 hours): Form-A
- XRPD after slurry ([2]; FaSSIF, Equilibrium-24 hours): Form-A
- XRPD after slurry ([2]; Water, Equilibrium-24 hours): Dihydrate
- solubility at 1 h ([2]; thermodynamic from solid, FaSSIF, Kinetic-1 hour): 490 µg/mL (≈ 1120 µM)
- solubility at 1 h ([2]; thermodynamic from solid, Water, Kinetic-1 hour): 25.9 µg/mL (≈ 59.5 µM)
SMILES: CC(C)c1cc(Oc2c(Cl)cc(-n3nc(C#N)c(=O)[nH]c3=O)cc2Cl)n[nH]c1=O [Form A, 2-(3,5-dichloro-4-((5-isopropyl-6-oxo-1,6-dihydropyridazin-3-yl)oxy)phenyl)-3,5-dioxo-2,3,4,5-tetrahydro-1,2,4-triazine-6-carbonitrile]

- hygroscopicity ([3]; DVS, 2% to 95% RH): not hygroscopic
- mass gain (DVS) ([3]; between 2% and 95% relative humidity, by weight): 1.12%
- XRPD pattern after DVS analysis compared with the starting material ([3]; listed as co-crystal): No difference
- XRPD pattern after DVS analysis compared with the starting material ([3]; listed as glutaric acid co-crystal): no change was observed
- stability [4]: stable
- Solubility ([2]; FaSSGF, Equilibrium-24 hours): 1 µg/mL
- Solubility ([2]; FaSSGF, Kinetic-1 hour): 0.1 µg/mL
- Solubility ([2]; FaSSIF, Equilibrium-24 hours): 478.1 µg/mL
- Solubility ([2]; FaSSIF, Kinetic-1 hour): 239.9 µg/mL
- Solubility ([2]; Water, Equilibrium-24 hours): 1.6 µg/mL
- Solubility ([2]; Water, Kinetic-1 hour): 0.3 µg/mL
- pH ([2]; FaSSGF, Equilibrium-24 hours): 1.66
- pH ([2]; FaSSIF, Equilibrium-24 hours): 6.31
- pH ([2]; Water, Equilibrium-24 hours): 4.27
- XRPD after slurry ([2]; FaSSGF, Equilibrium-24 hours): Dihydrate
- XRPD after slurry ([2]; FaSSIF, Equilibrium-24 hours): Dihydrate
- XRPD after slurry ([2]; Water, Equilibrium-24 hours): Dihydrate
SMILES: CC(C)c1cc(Oc2c(Cl)cc(-n3nc(C#N)c(=O)[nH]c3=O)cc2Cl)n[nH]c1=O.O=C(O)CCCC(=O)O [Glutaric acid co-crystal]

- Solubility ([1]; FaSSGF): 0.0025 mg/mL
- Solubility ([1]; FaSSIF): 0.80 mg/mL
- Solubility ([1]; Water): 0.32 mg/mL
- Resulting form ([1]; after solubility test in Water): Dihydrate
- Resulting form [1, 7]: Dihydrate
- physical form stability compared with starting solids [5]: changes were observed
SMILES: CC(C)c1cc(Oc2c(Cl)cc(-n3nc(C#N)c(=O)[n-]c3=O)cc2Cl)n[nH]c1=O.CC(C)c1cc(Oc2c(Cl)cc(-n3nc(C#N)c(=O)[n-]c3=O)cc2Cl)n[nH]c1=O.[Ca+2] [Hemi Ca]

- Solubility ([1]; FaSSGF): 0.0067 mg/mL
- Solubility ([1]; FaSSIF): 2.9 mg/mL
- Solubility ([1]; Water): 0.1 mg/mL
SMILES: CC(C)c1cc(Oc2c(Cl)cc(-n3nc(C#N)c(=O)[nH]c3=O)cc2Cl)n[nH]c1=O.O.O [Free form dihydrate]

- Solubility ([1]; FaSSGF): 0.0008 mg/mL
- Solubility ([1]; FaSSIF): 2.50 mg/mL
- Solubility ([1]; Water): > 25 mg/mL
- Solubility [1, 6]: 0.25 mg/mL
- Resulting form ([1]; after solubility test in Water): Clear solution
- Resulting form [1, 7]: Dihydrate
SMILES: CC(C)c1cc(Oc2c(Cl)cc(-n3nc(C#N)c(=O)[n-]c3=O)cc2Cl)n[nH]c1=O.[Na+] [Na]

- Solubility ([1]; FaSSGF): 0.1 mg/mL
- Solubility ([1]; FaSSIF): 4.5 mg/mL
- Solubility ([1]; Water): 0.2 mg/mL
SMILES: CC(C)c1cc(Oc2c(Cl)cc(-n3nc(C#N)c(=O)[nH]c3=O)cc2Cl)n[nH]c1=O [Free form Anhydrous]
